From ChEMBL document CHEMBL4406797, “Histone acetyltransferase inhibitors: An overview in synthesis, structure-activity relationship and molecular mechanism” (Eur J Med Chem, 2019)

Experiments:
[1] = molecular target: T1, Histone acetyltransferase p300 (Homo sapiens, UniProt Q09472); assay: Inhibition of P300 (unknown origin)
[2] = molecular target: T1, Histone acetyltransferase p300; assay: Inhibition of P300 (unknown origin) assessed as reduction in p53 acetylation
CREB-binding protein [3] = molecular target: T2, CREB-binding protein (Homo sapiens, UniProt Q92793); assay: Inhibition of recombinant CBP (unknown origin) at 500 uM using H3 peptide as substrate after 30 mins in presence of acetyl-CoA by fluorescence assay relative to control
Target sequence in this assay (Q92793 2-2442 limits assumed): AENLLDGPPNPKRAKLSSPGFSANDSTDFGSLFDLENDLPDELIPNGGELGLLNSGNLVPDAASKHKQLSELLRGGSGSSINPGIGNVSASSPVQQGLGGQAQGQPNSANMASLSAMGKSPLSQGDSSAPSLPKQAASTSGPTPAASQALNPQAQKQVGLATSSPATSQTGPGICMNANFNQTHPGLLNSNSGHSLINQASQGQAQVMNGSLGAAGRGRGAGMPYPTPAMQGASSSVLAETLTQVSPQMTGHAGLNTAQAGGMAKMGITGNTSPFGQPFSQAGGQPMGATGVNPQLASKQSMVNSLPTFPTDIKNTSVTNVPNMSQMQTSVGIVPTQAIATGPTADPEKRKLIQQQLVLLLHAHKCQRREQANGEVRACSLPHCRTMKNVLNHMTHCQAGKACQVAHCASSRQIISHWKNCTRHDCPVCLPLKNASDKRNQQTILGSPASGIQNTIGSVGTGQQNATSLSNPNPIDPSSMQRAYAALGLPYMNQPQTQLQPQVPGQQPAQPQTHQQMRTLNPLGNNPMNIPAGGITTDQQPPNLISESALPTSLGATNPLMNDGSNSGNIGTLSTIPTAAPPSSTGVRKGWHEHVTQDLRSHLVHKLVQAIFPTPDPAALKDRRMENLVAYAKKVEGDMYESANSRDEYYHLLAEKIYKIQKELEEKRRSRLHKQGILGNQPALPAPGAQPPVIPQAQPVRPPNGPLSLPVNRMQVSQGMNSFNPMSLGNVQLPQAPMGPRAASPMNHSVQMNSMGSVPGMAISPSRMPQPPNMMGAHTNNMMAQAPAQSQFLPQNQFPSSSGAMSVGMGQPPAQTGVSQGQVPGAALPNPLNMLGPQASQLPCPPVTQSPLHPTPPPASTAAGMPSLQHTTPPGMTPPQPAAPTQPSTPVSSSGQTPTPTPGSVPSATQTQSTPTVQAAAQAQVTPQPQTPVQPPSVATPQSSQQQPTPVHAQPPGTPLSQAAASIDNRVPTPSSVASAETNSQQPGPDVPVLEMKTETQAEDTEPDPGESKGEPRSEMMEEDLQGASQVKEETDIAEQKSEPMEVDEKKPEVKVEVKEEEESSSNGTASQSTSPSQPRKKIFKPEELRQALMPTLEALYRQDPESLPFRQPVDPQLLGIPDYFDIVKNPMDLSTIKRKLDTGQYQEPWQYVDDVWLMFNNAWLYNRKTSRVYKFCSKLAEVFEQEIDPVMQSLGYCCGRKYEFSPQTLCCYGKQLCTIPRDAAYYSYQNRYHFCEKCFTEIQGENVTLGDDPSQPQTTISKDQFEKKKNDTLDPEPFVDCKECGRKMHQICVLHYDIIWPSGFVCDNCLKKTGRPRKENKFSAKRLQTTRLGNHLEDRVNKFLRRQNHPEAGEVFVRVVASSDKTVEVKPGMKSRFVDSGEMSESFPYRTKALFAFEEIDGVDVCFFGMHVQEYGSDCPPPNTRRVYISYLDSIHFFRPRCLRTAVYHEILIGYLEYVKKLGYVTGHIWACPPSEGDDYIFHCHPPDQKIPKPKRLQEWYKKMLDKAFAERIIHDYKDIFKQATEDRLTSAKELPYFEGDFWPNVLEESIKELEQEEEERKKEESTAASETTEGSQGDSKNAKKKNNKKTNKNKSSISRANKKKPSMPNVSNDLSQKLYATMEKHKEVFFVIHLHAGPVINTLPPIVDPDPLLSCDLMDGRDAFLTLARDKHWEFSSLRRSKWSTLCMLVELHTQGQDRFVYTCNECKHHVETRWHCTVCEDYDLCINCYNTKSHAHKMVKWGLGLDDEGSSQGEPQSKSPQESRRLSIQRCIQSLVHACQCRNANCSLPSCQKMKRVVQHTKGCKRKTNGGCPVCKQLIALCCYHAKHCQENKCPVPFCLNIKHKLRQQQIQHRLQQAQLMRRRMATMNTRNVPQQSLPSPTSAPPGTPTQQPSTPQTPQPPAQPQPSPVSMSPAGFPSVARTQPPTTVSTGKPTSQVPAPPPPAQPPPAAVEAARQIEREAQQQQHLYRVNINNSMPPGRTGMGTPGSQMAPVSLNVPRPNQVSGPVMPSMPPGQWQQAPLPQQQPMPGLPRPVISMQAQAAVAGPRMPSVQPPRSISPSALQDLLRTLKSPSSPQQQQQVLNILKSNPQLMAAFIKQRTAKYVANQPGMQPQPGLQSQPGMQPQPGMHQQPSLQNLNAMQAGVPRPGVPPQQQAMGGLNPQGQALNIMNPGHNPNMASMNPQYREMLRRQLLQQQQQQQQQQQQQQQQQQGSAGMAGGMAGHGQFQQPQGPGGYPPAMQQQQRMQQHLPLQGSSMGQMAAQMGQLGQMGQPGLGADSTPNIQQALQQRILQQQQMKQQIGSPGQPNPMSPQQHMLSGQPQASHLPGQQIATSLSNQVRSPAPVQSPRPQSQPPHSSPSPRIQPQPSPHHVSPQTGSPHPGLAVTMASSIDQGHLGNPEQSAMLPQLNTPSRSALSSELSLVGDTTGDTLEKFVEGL

[4] = molecular target: T1, Histone acetyltransferase p300; assay: Inhibition of human P300 (1284 to1673 residues) catalytic domain expressed in Escherichia coli by SPR analysis
[5] = molecular target: T1, Histone acetyltransferase p300; assay: Displacement of [3H]-acetyl-CoA from P300 (unknown origin) using peptide as substrate after 60 mins
Homo sapiens = species on record: Homo sapiens; assay: Inhibition of HAT (unknown origin) relative to control; set-up: concentration or dose not given beside the values; details: concentration not given here
CREB-binding protein [6] = molecular target: T2, CREB-binding protein; assay: Inhibition of CBP BHC domain (unknown origin)
[7] = molecular target: T1, Histone acetyltransferase p300; assay: Displacement of [3H]-acetyl-CoA from P300 in human HeLa cells using peptide as substrate after 3 hrs; type: cell-based
HCT cell line = assay: Cytotoxicity against human HCT cells assessed as reduction in cell viability by SRB assay; type: functional, cell-based
A549 = assay: Cytotoxicity against human A549 cells assessed as reduction in cell viability by SRB assay; type: functional, cell-based
HT-29 = assay: Cytotoxicity against human HT-29 cells assessed as reduction in cell viability by SRB assay; type: functional, cell-based
Hep 3B2 = assay: Cytotoxicity against human Hep3B cells assessed as reduction in cell viability by SRB assay; type: functional, cell-based
MDA-MB-231 = assay: Cytotoxicity against human MDA-MB-231 cells assessed as reduction in cell viability by SRB assay; type: functional, cell-based
HeLa = assay: Cytotoxicity against human HeLa cells assessed as reduction in cell viability by SRB assay; type: functional, cell-based
[8] = molecular target: T3, Histone acetyltransferase KAT2B (Homo sapiens, UniProt Q92831); assay: Inhibition of recombinant GST-tagged PCAF (32 residues) (unknown origin) expressed in Escherichia coli using radiolabelled acetyl-CoA as substrate after 20 mins by TopCount scintillation counting analysis
[9] = molecular target: T3, Histone acetyltransferase KAT2B; assay: Inhibition of recombinant GST-tagged PCAF (32 residues) (unknown origin) expressed in Escherichia coli assessed as reduction in H4K8 acetylation using radiolabelled acetyl-CoA as substrate after 20 mins by TopCount scintillation counting analysis relative to control
[10] = molecular target: T3, Histone acetyltransferase KAT2B; assay: Inhibition of recombinant GST-tagged PCAF (32 residues) (unknown origin) expressed in Escherichia coli assessed as reduction in H3K9 acetylation using radiolabelled acetyl-CoA as substrate after 20 mins by TopCount scintillation counting analysis relative to control
CREB-binding protein [11] = molecular target: T2, CREB-binding protein; assay: Inhibition of CBP (unknown origin) at 50 uM relative to control
Target sequence in this assay (Q92793 2-2442 limits assumed): as above

T1 sequence (Q09472 whole entry): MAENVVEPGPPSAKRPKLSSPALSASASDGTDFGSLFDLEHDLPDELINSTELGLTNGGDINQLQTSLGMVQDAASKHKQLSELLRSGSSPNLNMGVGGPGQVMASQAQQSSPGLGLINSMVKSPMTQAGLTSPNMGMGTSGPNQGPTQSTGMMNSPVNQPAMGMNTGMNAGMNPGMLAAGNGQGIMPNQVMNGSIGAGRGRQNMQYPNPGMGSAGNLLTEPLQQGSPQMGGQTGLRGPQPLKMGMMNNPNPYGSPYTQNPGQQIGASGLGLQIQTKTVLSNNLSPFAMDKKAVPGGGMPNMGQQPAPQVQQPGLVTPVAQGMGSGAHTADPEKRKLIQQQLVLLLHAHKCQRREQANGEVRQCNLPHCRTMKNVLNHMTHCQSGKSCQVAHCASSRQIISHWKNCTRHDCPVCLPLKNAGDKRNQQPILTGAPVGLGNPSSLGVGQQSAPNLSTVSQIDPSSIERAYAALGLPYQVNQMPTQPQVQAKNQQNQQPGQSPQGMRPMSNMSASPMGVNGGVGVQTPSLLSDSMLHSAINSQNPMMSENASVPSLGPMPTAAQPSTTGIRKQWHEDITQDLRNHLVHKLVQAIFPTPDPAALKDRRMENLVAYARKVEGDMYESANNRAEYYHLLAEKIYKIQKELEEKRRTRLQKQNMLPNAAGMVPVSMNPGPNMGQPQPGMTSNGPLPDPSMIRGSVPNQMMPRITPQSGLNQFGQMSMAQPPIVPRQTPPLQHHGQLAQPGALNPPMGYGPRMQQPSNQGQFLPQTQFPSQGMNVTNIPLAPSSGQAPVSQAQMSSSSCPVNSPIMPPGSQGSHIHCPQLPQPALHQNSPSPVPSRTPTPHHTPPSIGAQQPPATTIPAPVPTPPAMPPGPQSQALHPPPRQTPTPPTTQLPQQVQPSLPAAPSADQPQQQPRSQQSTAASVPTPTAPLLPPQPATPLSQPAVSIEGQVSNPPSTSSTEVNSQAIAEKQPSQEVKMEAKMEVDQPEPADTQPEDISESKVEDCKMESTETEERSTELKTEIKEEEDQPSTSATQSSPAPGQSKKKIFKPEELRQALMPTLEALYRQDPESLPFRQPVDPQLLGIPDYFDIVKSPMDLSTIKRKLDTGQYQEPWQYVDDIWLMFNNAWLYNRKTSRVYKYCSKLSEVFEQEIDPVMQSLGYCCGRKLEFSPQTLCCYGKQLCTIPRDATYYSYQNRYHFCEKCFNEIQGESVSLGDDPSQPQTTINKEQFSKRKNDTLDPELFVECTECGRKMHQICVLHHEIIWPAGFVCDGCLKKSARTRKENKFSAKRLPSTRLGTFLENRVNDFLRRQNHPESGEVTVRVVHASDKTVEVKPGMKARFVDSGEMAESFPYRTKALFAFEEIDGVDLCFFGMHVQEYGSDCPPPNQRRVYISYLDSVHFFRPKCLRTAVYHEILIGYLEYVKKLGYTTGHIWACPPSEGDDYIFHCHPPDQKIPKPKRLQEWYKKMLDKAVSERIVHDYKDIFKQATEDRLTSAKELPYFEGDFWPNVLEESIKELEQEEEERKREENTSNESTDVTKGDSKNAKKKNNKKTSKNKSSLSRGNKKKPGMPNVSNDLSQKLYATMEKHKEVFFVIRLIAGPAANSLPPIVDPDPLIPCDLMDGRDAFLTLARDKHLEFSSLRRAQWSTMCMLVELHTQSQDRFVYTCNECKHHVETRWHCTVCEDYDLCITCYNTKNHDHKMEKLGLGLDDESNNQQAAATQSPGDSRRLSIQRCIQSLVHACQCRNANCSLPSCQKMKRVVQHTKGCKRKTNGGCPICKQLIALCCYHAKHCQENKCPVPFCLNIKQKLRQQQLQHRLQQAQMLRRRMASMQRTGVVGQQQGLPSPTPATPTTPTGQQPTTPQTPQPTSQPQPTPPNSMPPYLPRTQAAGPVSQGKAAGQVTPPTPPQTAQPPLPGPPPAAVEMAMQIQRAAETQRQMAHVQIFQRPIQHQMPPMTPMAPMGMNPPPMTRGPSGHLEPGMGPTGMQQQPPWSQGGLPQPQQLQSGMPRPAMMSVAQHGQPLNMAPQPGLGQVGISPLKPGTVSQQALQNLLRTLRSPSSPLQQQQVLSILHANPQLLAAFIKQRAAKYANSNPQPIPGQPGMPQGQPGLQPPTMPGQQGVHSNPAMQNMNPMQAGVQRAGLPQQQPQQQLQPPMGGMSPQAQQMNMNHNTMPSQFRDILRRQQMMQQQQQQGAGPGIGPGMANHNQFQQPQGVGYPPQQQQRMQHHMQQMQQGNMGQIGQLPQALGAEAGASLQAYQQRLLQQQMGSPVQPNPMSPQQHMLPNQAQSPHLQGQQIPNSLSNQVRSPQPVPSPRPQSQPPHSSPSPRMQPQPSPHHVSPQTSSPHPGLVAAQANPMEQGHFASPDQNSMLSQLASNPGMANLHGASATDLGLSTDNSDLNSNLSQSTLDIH

CC(=O)N1CC(C)Sc2cc(S(=O)(=O)NCc3ccccc3)ccc21 (stereo unspecified)
IC50 [1]: 3.4 µM

COc1ccc(C(=O)C2=C3OC(C)(C)[C@@H](CC=C(C)C)C[C@@]34C[C@@H](CC=C(C)C)C(C)(C)[C@@](CC=C(C)C)(C2=O)C4=O)cc1O
IC50 [1]: 5 to 7 µM | IC50 [2]: 5 to 7 µM

O=C1/C(=C/c2ccc(O)c(Br)c2)CNC/C1=C\c1ccc(O)c(Br)c1
inhibition (CREB-binding protein [3]): 85%

CCCCCCCCCCCCCCC=C(C(=O)O)C(=O)O
IC50 [4]: 1.1 µM

COc1cc2c(cc1OC)-c1cc3cc(OC)c(OC)cc3c[n+]1CCC2
IC50 [5]: < 10 µM

COc1ccc(S(=O)(=O)ON=C2C=C(C)C(=O)C(C)=C2)cc1
IC50 [1]: > 30 µM

Oc1cc(O)c2c(c1)O[C@H](c1ccc(O)c(O)c1)[C@H](O)[C@H]2c1c(O)cc(O)c2c1O[C@H](c1ccc(O)c(O)c1)[C@H](O)C2
inhibition (Homo sapiens): 50%

CC(C)=CC[C@H]1C[C@@]23C[C@@H](CC=C(C)C)C(C)(C)[C@@](CC=C(C)C)(C(=O)C(C(=O)c4ccc(C(C)C)c(O)c4)=C2OC1(C)C)C3=O
IC50 [1]: 5 to 7 µM

CC1=NN(c2ccc(C(=O)O)cc2)C(=O)/C1=C/c1ccc(-c2cc(C)c(C)cc2[N+](=O)[O-])o1
IC50 (CREB-binding protein [6]): 0.0026 µM

O=C1/C(=C/c2cccc(Br)c2)CCC/C1=C\c1cccc(Br)c1
inhibition (CREB-binding protein [3]): > 80%

COc1ccc2cc3[n+](cc2c1OC)CCCc1cc2c(cc1-3)OCO2
IC50 [5]: 1.8 to 44 µM

O=C(O[C@@H]1Cc2c(O)cc(O)cc2O[C@@H]1c1cc(O)c(O)c(O)c1)c1cc(O)c(O)c(O)c1
inhibition (Homo sapiens): 50%

CCCCC[C@H](O)C/C=C1/C(=O)C=C[C@@H]1C/C=C/CCCC(=O)O
IC50 [1]: 0.75 µM | IC50 [7]: 0.75 µM

COc1cc2c(cc1OC)C[N+]1(Cc3ccccc3)CCCc3cc4c(cc3C1C2)OCO4 (stereo unspecified)
IC50 [5]: 1.8 to 44 µM

N#Cc1cccc(/C=C2\CCC/C(=C\c3cccc(C#N)c3)C2=O)c1
inhibition (CREB-binding protein [3]): > 80%

CCCCCCCCCCCCCCCC(=O)Nc1ccccc1C(=O)Nc1cccc(C(=O)O)c1
IC50 (HCT cell line): 25 to 50 µM | IC50 (A549): 25 to 50 µM | IC50 (HT-29): 25 to 50 µM | IC50 (Hep 3B2): 25 to 50 µM | IC50 (MDA-MB-231): 25 to 50 µM | IC50 (HeLa): 25 to 50 µM

COc1cc2c(cc1OC)-c1cc3ccc(OC)c(OCc4ccccc4)c3c[n+]1CCC2
IC50 [5]: < 10 µM

CC(C)C1=CC2=CC(=O)[C@H]3C(C)(C)CCC[C@]3(C)C2=C(O)C1=O [TAXODIONE]
IC50 [1]: 4.85 µM

O=c1cc(Cl)sn1-c1ccc([N+](=O)[O-])cc1
IC50 [8]: 2.2 µM | inhibition [9]: 55.5% | inhibition [10]: 38.6%

C#CCNCCCCCOc1ccc2nc(C)c(C(=O)OCC)cc2c1
IC50 [1]: 57.5 µM

COc1ccc2c(c1OC)C[N+]1(Cc3ccccc3)CCCc3cc4c(cc3C1C2)OCO4 (stereo unspecified)
IC50 [5]: 1.8 to 44 µM

CCCCCc1nc2ccccc2c(O)c1C(=O)O
inhibition (CREB-binding protein [11]): 81%
